Test system: C57BL/6J mice
Assay: FeCl3-induced carotid artery thrombosis model
Assay type: in vivo
Details: heparin sodium 2.7 mg/kg by tail vein 10 min before 6% FeCl3; observed 30 min; n = 6
Method: The in vivo antithrombotic activity of WPK5-Mut was evaluated by using a FeCl3-induced carotid artery thrombosis model in mice. Mice (C57BL/6J, males, 18–22 g) were anesthetized by intraperitoneal injection of chloral hydrate (5%, 10 mL/kg) and then placed in a supine position on a heating pad (37 °C) to maintain body temperature. An incision was made in the middle of the mouse’s neck and the fascia and muscle were gradually separated to expose the carotid artery. A rubber strip (4 × 10 mm) was placed under the artery to separate it from the surrounding tissues, and mice were injected heparin sodium (2.7 mg/kg), WPK5-Mut (0.75, 1.5 and 3 mg/kg) or saline through the tail vein and placed under a laser speckle contrast imaging (moor FLPI-2, Moor Instruments Limited, Millwey, Axminster, Devon, EX13 5HU, UK) to observe the carotid blood flow. […] The occlusion time was defined as the time from the removal of the FeCl3 saturated filter paper to the blockage of the vessel for at least 3 consecutive min [44]. If a vessel is blocked at a certain time for 3 consecutive min, this time is recorded as occlusion time, and if no blockage occurs within 30 min, the occlusion time is recorded as 30 min. The blood flow was analyzed by moorFLPI ReviewV50 software.

heparin sodium
occlusion time: > 30 min

From paper PMC8698482, “WPK5, a Novel Kunitz-Type Peptide from the Leech Whitmania pigra Inhibiting Factor XIa, and Its Loop-Replaced Mutant to Improve Potency” (Biomedicines, 2021)
